Experimental data reported in patent US20080026996A1, “Selective Vpac2 Receptor Reptide Agonists” (ELI LILLY AND COMPANY, priority 2004, published 2008).
Residue numbers refer to the chain shown, from its start. Where two headings read alike, the source gives them in different places. Where a SMILES comes first, the peptide text is derived from it. Where no end group is shown, it is not given here. [ ]: non-standard residue; d: D form. The star is where a group is joined. hArg = N=C(N)NCCCC[C@H](N)C(=O)O; Hexanoyl = CCCCCC(=O)*; Aib = CC(C)(N)C(=O)O

T1: human VPAC2 (Homo sapiens, UniProt P41587)
T1 construct: expressed in transfected cells
T1 sequence (P41587 24-438): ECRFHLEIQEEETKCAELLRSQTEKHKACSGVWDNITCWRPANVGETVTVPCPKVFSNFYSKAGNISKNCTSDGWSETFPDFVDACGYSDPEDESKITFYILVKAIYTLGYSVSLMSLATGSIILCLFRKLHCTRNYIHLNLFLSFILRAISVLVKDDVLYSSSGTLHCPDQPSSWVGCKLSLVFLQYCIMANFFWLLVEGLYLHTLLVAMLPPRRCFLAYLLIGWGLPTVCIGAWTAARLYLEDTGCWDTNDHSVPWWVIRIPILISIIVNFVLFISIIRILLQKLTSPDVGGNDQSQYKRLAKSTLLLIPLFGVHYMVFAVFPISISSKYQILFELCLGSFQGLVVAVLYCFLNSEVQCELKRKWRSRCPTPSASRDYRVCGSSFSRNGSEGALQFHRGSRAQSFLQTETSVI

T2: human VPAC1 (Homo sapiens, UniProt P32241)
T2 sequence (P32241 31-457): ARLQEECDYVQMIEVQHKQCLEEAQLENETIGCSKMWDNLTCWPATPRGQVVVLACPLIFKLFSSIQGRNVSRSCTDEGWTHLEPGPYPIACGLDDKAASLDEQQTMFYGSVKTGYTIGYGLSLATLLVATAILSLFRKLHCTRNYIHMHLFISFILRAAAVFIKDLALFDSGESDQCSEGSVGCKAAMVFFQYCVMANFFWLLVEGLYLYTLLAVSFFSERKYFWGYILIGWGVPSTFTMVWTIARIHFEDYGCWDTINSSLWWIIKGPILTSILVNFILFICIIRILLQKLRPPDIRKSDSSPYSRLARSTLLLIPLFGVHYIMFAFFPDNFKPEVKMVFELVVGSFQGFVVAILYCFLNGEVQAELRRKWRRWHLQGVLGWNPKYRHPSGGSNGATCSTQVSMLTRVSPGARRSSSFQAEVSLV

T3: human PAC1 (Homo sapiens, UniProt P41586)
T3 sequence (P41586 21-468): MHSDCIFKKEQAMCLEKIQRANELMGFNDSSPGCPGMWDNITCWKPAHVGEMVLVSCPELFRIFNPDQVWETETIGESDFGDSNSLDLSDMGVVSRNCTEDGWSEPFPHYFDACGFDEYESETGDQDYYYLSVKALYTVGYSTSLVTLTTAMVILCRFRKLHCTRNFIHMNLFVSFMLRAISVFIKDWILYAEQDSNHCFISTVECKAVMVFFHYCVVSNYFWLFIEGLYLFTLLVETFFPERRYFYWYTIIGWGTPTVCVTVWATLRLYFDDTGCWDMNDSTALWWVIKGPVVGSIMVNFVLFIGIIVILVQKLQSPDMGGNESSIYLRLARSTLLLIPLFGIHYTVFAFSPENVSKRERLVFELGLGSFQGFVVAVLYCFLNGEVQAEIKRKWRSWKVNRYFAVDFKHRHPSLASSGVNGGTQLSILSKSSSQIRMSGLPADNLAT

T4: human VPAC2 receptor (human, UniProt P41587 24-438)
T4 sequence (looked up): T1 sequence (P41587 24-438)

T5: human VPAC1 receptor (human, UniProt P32241 31-457)
T5 sequence (looked up): T2 sequence (P32241 31-457)

T6: human PAC1 receptor (human, UniProt P41586 21-468)
T6 sequence (looked up): T3 sequence (P41586 21-468)

B1: P24 (peptide)
peptide: HSDAVFTDNYTRLRKQVAAKKYLQSIKN[hArg]RYGGPSSGAPPPS
modifications: ends and bridges not checked
B2: P19 (peptide)
peptide: HSDAVFTDNYTRLRKQVAAIKYLQSIKNKRYGGPSSGAPPPS
modifications: not fully specified
B3: P26 (peptide)
peptide: B2 peptide with L13F, I20K
B4: P50 (peptide)
peptide: B2 peptide with A4I, I20K
modifications: not fully specified
B5: P25 (peptide)
peptide: B2 peptide with I20K, K29R
B6: P72 (peptide)
peptide: B2 peptide with K15R, I20K
B7: P20 (peptide)
peptide: B2 peptide with I20R
B8: P71 (peptide)
peptide: B2 peptide with K15R, I20R, K21R, K27R, K29R
modifications: not fully specified
B9: P21 (peptide)
peptide: B2 peptide with I20S
B10: P23 (peptide)
peptide: B2 peptide with I20K, K27R
B11: P47 (peptide)
peptide: H[dA]DAVFTDNYTRLRKQVAAKKYLQSIKNKRYGGPSSGAPPPS
B12: P22 (peptide)
peptide: HSDAVFTDNYTRLRKQVAAKKYLQSI[hArg]NKRYGGPSSGAPPPS
modifications: ends and bridges not checked
B13: P18 (peptide)
peptide: HSDAVFTDNYTRLRKQVAA[hArg]KYLQSIKNKRYGGPSSGAPPPS
modifications: ends and bridges not checked

Assays:
human VPAC2 [1] = molecular target: T1, human VPAC2; assay: Alpha screen cAMP in vitro potency, human VPAC2 receptor; type: cell-based; conditions: cAMP generation; single result from two analyses performed in a single run; read-out: Human VPAC2 Receptor: Alpha Screen EC50
Summary of the method: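 Under reduced light, acceptor beads accompany the stimuli during a 60-minute incubation of cells in stimulation buffer (50,000 per well point). Donor beads go in with lysis buffer for a further 60–120 minutes, and the resulting AlphaScreen signal indicates cAMP levels.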

human VPAC2 [2] = molecular target: T1, human VPAC2; assay: Filter binding assay, membranes of stable VPAC2 cell line, 125I-labeled VIP tracer (Table 2); conditions: read-out: Human VPAC2 Receptor Binding
Summary of the method: (§1)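 Radioligand displacement was measured with 2.5 μg membrane protein per well and roughly 40000 cpm of iodinated tracer. After a 1-hour incubation, bound and free label were separated on BSA-blocked glass-fibre filters and quantified by scintillation.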

[3] = Rat serum stability studies (remaining active peptide by DiscoveRx cAMP on CHO-VPAC2 cells); type: in vitro ADME
Summary of the method: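 EC50 from a DiscoveRx cAMP read-out on CHO-VPAC2 cells indexes how much peptide stays active after 18 h in rat serum at 37° C without aprotinin, against an aprotinin-protected 4° C aliquot.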

human VPAC1 = molecular target: T2, human VPAC1; assay: Filter binding assay, membranes of cells transiently transfected with human VPAC1, 125I-labeled VIP tracer (Table 2); design: expressed in transfected cells; conditions: read-out: Human VPAC1 Receptor Binding
Summary of the method: as §1

human PAC1 = molecular target: T3, human PAC1; assay: Filter binding assay, membranes of cells transiently transfected with human PAC1, 125I-labeled PACAP-27 tracer (Table 2); design: expressed in transfected cells; conditions: read-out: Human PAC1 Receptor Binding
Summary of the method: as §1

human VPAC2 receptor = molecular target: T4, human VPAC2 receptor; assay: cell-based or functional assay
human VPAC1 receptor = molecular target: T5, human VPAC1 receptor; assay: cell-based or functional assay
human PAC1 receptor = molecular target: T6, human PAC1 receptor; assay: cell-based or functional assay

| Molecule | EC50 (human VPAC2 [1]) [nM] | IC50 (human VPAC2 [2]) [nM] | Rat Serum Stability (estimated purity in % after 18 hours) [3] [%] | IC50 (human VPAC1) [nM] | IC50 (human PAC1) [nM] | EC50 cAMP, DiscoveRx (human VPAC2 receptor) [nM] | EC50 cAMP, DiscoveRx (human VPAC1 receptor) [nM] | EC50 cAMP, DiscoveRx (human PAC1 receptor) [nM] | EC50 cAMP, Alpha Screen (human VPAC2 receptor) [nM] | EC50 cAMP, DiscoveRx (human PAC1 receptor; record 2) [nM] |
| --- | --- | --- | --- | --- | --- | --- | --- | --- | --- | --- |
| Hexanoyl-HSDAVFTDNYTRLQ[Aib]QVAA[Aib]KYLQSIKNKRYGGPSSGAPPPS [Agonist P302] | 0.45 | 1.62 | 21.43 | > 3000 | > 25000 |  |  |  |  |  |
| CCCCCC(=O)N[C@@H](Cc1c[nH]cn1)C(=O)N[C@@H](CO)C(=O)N[C@@H](CC(=O)O)C(=O)N[C@@H](C)C(=O)N[C@H](C(=O)N[C@@H](Cc1ccccc1)C(=O)N[C@H](C(=O)N[C@@H](CC(=O)O)C(=O)N[C@@H](CC(N)=O)C(=O)N[C@@H](Cc1ccc(O)cc1)C(=O)N[C@H](C(=O)N[C@@H](CCCNC(=N)N)C(=O)N[C@@H](CC(C)C)C(=O)N[C@@H](CCCNC(=N)N)C(=O)NC(C)(C)C(=O)N[C@@H](CCC(N)=O)C(=O)N[C@H](C(=O)N[C@@H](C)C(=O)N[C@@H](C)C(=O)NC(C)(C)C(=O)N[C@@H](CCCCN)C(=O)N[C@@H](Cc1ccc(O)cc1)C(=O)N[C@@H](CC(C)C)C(=O)N[C@@H](CCC(N)=O)C(=O)N[C@@H](CO)C(=O)N[C@H](C(=O)N[C@@H](CCCCN)C(=O)N[C@@H](CCC(N)=O)C(=O)NCC(=O)NCC(=O)N1CCC[C@H]1C(=O)N[C@@H](CO)C(=O)N[C@@H](CO)C(=O)NCC(=O)N[C@@H](C)C(=O)N1CCC[C@H]1C(=O)N1CCC[C@H]1C(=O)N1CCC[C@H]1C(=O)N[C@@H](CO)C(=O)O)[C@@H](C)CC)C(C)C)[C@@H](C)O)[C@@H](C)O)C(C)C [Agonist P297] (Hexanoyl-HSDAVFTDNYTRLR[Aib]QVAA[Aib]KYLQSIKQGGPSSGAPPPS-OH; C-terminus assumed) | 0.36 | 1.95 | 21.17 | > 3000 | > 25000 |  |  |  |  |  |
| Hexanoyl-HSDAVFTEEYTRLQKQVAAKQYLQSIKNKRYGGPSSGAPPPS [Agonist P165] | 0.94 | 18.4 | 7.28 | 486 | 2860 |  |  |  |  |  |
| Hexanoyl-HSDAVFTDNYTRLRKQVAAFKYLQSIKNKRYGGPSSGAPPPS [Agonist P148] | 0.1 | 0.77 | <0.10 | 247 | 1000 |  |  |  |  |  |
| Hexanoyl-HSDAVFTDNYTRLFKQVAAKKYLQSIKNKRYGGPSSGAPPPS [Agonist P175] | 0.68 | 13.3 | <0.11 | > 3000 | > 25000 |  |  |  |  |  |
| Hexanoyl-HSDAVFTDNYTRLLKQVAAKKYLQSIKNKRYGGPSSGAPPPS [Agonist P174] | 0.26 | 55.1 | 1.91 | 302 | 621 |  |  |  |  |  |
| Hexanoyl-HSDAVFTDNYTRLQKQVAAK[Aib]YLQSIKNKRYGGPSSGAPPPS [Agonist P251] | 0.92 | 2.33 | 6.63 | > 3000 | > 25000 |  |  |  |  |  |
| Hexanoyl-HSD[Aib]VFTDNYTRLRKQVAAKKYLQSIKNKRYGGPSSGAPPPS [Agonist P209] | 0.1 | 0.2 | 0.13 | 130 | 343 |  |  |  |  |  |
| Hexanoyl-HSDAVFTDNYTRL[Aib]KQVAAKKYLQSIKNKRYGGPSSGAPPPS [Agonist P167] | 0.17 | 1.14 | 14.98 | 1150 | 1010 |  |  |  |  |  |
| B1 |  |  |  |  |  | 5.78 | 2.5 | > 100 |  |  |
| B2 |  |  |  |  |  | 9.03 | 2.9 |  |  |  |
| B3 |  |  |  |  |  | 4.81 | 0.9 | 84 |  |  |
| B4 |  |  |  |  |  | 19.2 | 111 |  |  |  |
| B5 |  |  |  |  |  | 3.02 | 2.7 | 137 |  |  |
| B6 |  |  |  |  |  | 1.79 | 0.3 | 35.3 |  |  |
| B7 |  |  |  |  |  | 2.13 | 2 | > 25 | 2.77 |  |
| B8 |  |  |  |  |  | 3.14 | 0.2 | 14.6 |  |  |
| B9 |  |  |  |  |  | 6.87 | 10.7 | > 100 | 11.6 |  |
| B10 |  |  |  |  |  | 1.41 | 0.9 | 98.3 | 2.3 |  |
| B11 |  |  |  |  |  | 1.07 | 3.6 | 136 | 1.39 |  |
| B12 |  |  |  |  |  | 1.18 | 0.9 | 73.5 | 2.23 |  |
| B13 |  |  |  |  |  |  | 0.4 | > 50 |  | 435 |
